Test results taken from ChEMBL document CHEMBL5143658, “Synthesis and biological evaluation of imidamide analogs as selective anti-trypanosomal agents” (Bioorg Med Chem, 2022).
Calls of active or inactive are those of the source. The rule behind the calls is not given here.

Assays:
Trypanosoma brucei [1] = experiment: Antitrypanosomal activity against blood stream form of Trypanosoma brucei Lister 427 assessed as inhibition of parasite growth incubated for 48 hrs by MTS assay; assay type: functional, organism-based; conditions: Lister 427, 48 h
[2] = Selectivity index, ratio of IC50 for cytotoxicity against mouse RAW264.7 cells to IC50 for antitrypanosomal activity against blood stream form of Trypanosoma brucei Lister 427; assay type: toxicity, cell-based; conditions: read-out: Ratio IC50
[3] = Cytotoxicity against mouse RAW264.7 cells assessed as inhibition of cell growth incubated for 48 hrs by MTT assay; assay type: toxicity, cell-based
[4] = Cytotoxicity against HEK293 cells assessed as inhibition of cell growth incubated for 48 hrs by MTT assay; assay type: toxicity, cell-based; conditions: human
[5] = Selectivity index, ratio of IC50 for cytotoxicity against HEK293 cells to IC50 for antitrypanosomal activity against blood stream form of Trypanosoma brucei Lister 427; assay type: toxicity, cell-based; conditions: human, read-out: Ratio IC50
Trypanosoma brucei [6] = experiment: Inhibition of tubulin polymerization in blood stream form of Trypanosoma brucei Lister 427 assessed as reduction in polymerized tubulin level incubated for 12 hrs by Western blot analysis; conditions: dose 200-1000 nM

Compound | IC50 (Trypanosoma brucei [1]) | selectivity ratio [2] | IC50 at 48 h [3] | IC50 at 48 h [4] | selectivity ratio [5] | inhibition (Trypanosoma brucei [6])
COc1ccc(OC)c(COc2cc(NC(=O)c3ccc4c(c3)OCO4)ccc2NC(=N)N)c1 | > 50 µM | 10 | > 500 µM | > 500 µM | – | –
N=C(N)Nc1ccc(NC(=O)c2ccc(Cl)c(Cl)c2)cc1OCc1ccccc1C(F)(F)F | 15.2 µM | 12.8 | 196 µM | > 500 µM | > 32.8 | –
CN(c1ccc(NC(=O)c2cccc(C(=N)N)c2)cc1OCc1ccc(C(=N)N)cc1)S(=O)(=O)Cc1ccccc1 | – | 50000 | > 500 µM | – | – | Active
Cc1ccc(C)c(COc2cc(NC(=O)c3ccc(Cl)c(Cl)c3)ccc2NC(=N)N)c1 | 27.6 µM | 18.1 | > 500 µM | > 500 µM | > 18.1 | –
N=C(N)Nc1ccc(NC(=O)c2ccc(Cl)c(Cl)c2)cc1OCc1ccc(C(F)(F)F)cc1 | > 50 µM | 10 | > 500 µM | > 500 µM | – | –
N=C(N)Nc1ccc(NC(=O)c2ccc3c(c2)OCO3)cc1OCc1ccccc1C(F)(F)F | > 50 µM | 10 | > 500 µM | 450 µM | < 9 | –
Cc1ccc(C)c(COc2cc(NC(=O)c3cc(C(F)(F)F)cc(C(F)(F)F)c3)ccc2NC(=N)N)c1 | 21 µM | 23.8 | > 500 µM | > 500 µM | > 23.8 | –
N=C(N)Nc1ccc(NC(=O)c2ccc(C(F)(F)F)cc2C(F)(F)F)cc1OCc1ccc(C(F)(F)F)cc1 | 18.2 µM | 27.5 | > 500 µM | 286 µM | 15.7 | –
CCCCCCOc1cc(NC(=O)c2ccc(OC)cc2)ccc1NC(=N)N | > 50 µM | 5.17 | 259 µM | > 500 µM | – | –
CN(c1ccc(NC(=O)c2ccc(C(=N)N)cc2)cc1OCc1ccc(C(F)(F)F)cc1)S(=O)(=O)Cc1ccccc1 | 28.4 µM | 17.6 | > 500 µM | > 500 µM | > 17.6 | –
CN(c1ccc(NC(=O)c2ccc(C(=N)N)cc2)cc1OCc1ccc(C(F)(F)F)cc1)S(=O)(=O)C(F)(F)F | > 50 µM | 10 | > 500 µM | > 500 µM | – | –
CN(c1ccc(NC(=O)c2cccc(C(=N)N)c2)cc1OCc1cccc(C(F)(F)F)c1)S(=O)(=O)Cc1ccccc1 | 15.3 µM | 32.6 | > 500 µM | > 500 µM | > 32.6 | –
Cc1ccc(C(F)(F)F)c(COc2cc(NC(=O)c3cccc(C(=N)N)c3)ccc2N(C)S(=O)(=O)C(F)(F)F)c1 | 0.22 µM | 3.9 | 0.86 µM | 25 µM | 114 | –
CN(c1ccc(NC(=O)c2cccc(C(=N)N)c2)cc1OCc1ccc(C(F)(F)F)cc1)S(=O)(=O)C(F)(F)F | > 50 µM | 10 | > 500 µM | > 500 µM | – | –
COc1ccc(C(=O)Nc2ccc(NC(=N)N)c(OCc3cccc(C(F)(F)F)c3)c2)cc1 | 27.4 µM | 3.71 | 102 µM | 263 µM | 9.58 | –
N=C(N)Nc1ccc(NC(=O)c2cc(C(F)(F)F)cc(C(F)(F)F)c2)cc1OCc1ccc(C(F)(F)F)cc1 | 16.9 µM | 29.6 | > 500 µM | 416 µM | 24.6 | –
CCCCCCOc1cc(NC(=O)c2ccc3c(c2)OCO3)ccc1NC(=N)N | > 50 µM | 9.2 | 460 µM | 385 µM | < 7.7 | –
N=C(N)Nc1ccc(NC(=O)c2ccc3c(c2)OCO3)cc1OCc1cccc(C(F)(F)F)c1 | 33.7 µM | 2.99 | 101 µM | 313 µM | 9.3 | –
N=C(N)Nc1ccc(NC(=O)c2ccc3c(c2)OCO3)cc1OCc1ccc(C(F)(F)F)cc1 | > 50 µM | 0.54 | 27.2 µM | 344 µM | < 6.87 | –
COc1ccc(OC)c(COc2cc(NC(=O)c3cc(C(F)(F)F)cc(C(F)(F)F)c3)ccc2NC(=N)N)c1 | > 50 µM | 2.45 | 123 µM | 307 µM | < 6.13 | –
CCS(=O)(=O)N(C)c1ccc(NC(=O)c2cccc(C(=N)N)c2)cc1OCc1ccc(C(=N)N)cc1 | 0.59 µM | 847 | > 500 µM | 426 µM | 722 | –
COc1ccc(C(=O)Nc2ccc(NC(=N)N)c(OCc3cc(OC)ccc3OC)c2)cc1 | 0.899 µM | 211 | 190 µM | > 500 µM | > 556 | –
COc1ccc(C(=O)Nc2ccc(NC(=N)N)c(OCc3cc(C)ccc3C)c2)cc1 | 47.9 µM | 10.4 | > 500 µM | > 500 µM | > 10.4 | –
N=C(N)Nc1ccc(NC(=O)c2cc(C(F)(F)F)cc(C(F)(F)F)c2)cc1OCc1ccccc1C(F)(F)F | 45.1 µM | 10.7 | 481 µM | > 500 µM | > 11.1 | –
CN(c1ccc(NC(=O)c2cccc(C(=N)N)c2)cc1OCc1ccc(C(F)(F)F)cc1)S(=O)(=O)Cc1ccccc1 | 13.8 µM | 36.3 | > 500 µM | > 500 µM | > 36.3 | –
